Measurements: patent publication US20180311191A1, “NEW COMBINATION THERAPIES FOR TREATING NEUROLOGICAL DAMAGE” (UNIVERSITAT AUTONOMA DE BARCELONA, priority 2015, published 2018)
Where two headings read alike, the source gives them in different places.

Legend:
motoneurons (MNs) [1] = assay: Rat model of peripheral nerve root avulsion (RA model): MN counts and immunohistochemistry at L4-L5 spinal cord; type: in vivo; details: for effect on the neuroprotective effect (MN survival) exerted by C1: RA-injured animals treated with C1 concomitantly
Text: For in vivo studies, a pre-clinical rat model of peripheral nerve root avulsion (RA model) was generated as previously described (see Penas C Cytoskeletal and activity-related changes in spinal motoneurons after root avulsion. Journal of Neurotrauma, 2009). Briefly, a midline skin incision was made at the level of the iliac crest, the right sciatic nerve was identified and the L4 and L5 spinal nerves were separated. A moderate traction was applied to produce extravertebral nerve root avulsion, leading to a retrograde degeneration of around 80% of the injured MNs within a month. The left roots were kept intact as control sham. We intratechally administered the vehicle (artificial cerebrospinal fluid (aCSF) [NaCl (124 mM), KCl (3 mM), NaHCO3 (26 mM), CaCl2/2H2O (2 mM), MgSO4/7H2O (1 mM), KH2PO4 (1.25 mM) and D-Glucose (10 mM)] or the positive control drug for neuroprotection (PRE084, 1-phenylcyclohexanecarboxylate hydrochloride, 1.7 μg/kg/day), C1 (Acamprosate calcium 96 μg/Kg/day (equivalent to 86.9 μg/Kg/day acamprosate free acid)+Ribavirin 0.48 μg/Kg/day) or acamprosate calcium (96 μg/Kg/day) (equivalent to 86.9 μg/Kg/day acamprosate free acid) alone and ribavirin (0.48 μg/Kg/day) alone. For this purpose, we used a programmable micro-infusion pump system (iPrecio, Primetech) to continuously perfuse the drugs into the animal CSF during 20 days from the following day after RA. […] experimental animal groups with RA were defined: one was treated with C1, another was treated with Pre084 (positive control), another was treated with Acamprosate calcium alone (A), another was treated with Ribavirin alone (B), another was treated with vehicle alone, another was left untreated (control). […] Images from microscope were digitally captured and analyzed using several plugins of the ImageJ Software.

[2] = test system: NSC-34 motoneuron-like cells; assay: MTT cell survival assay of NSC-34 motoneuron-like cells under tunicamycin-induced ER stress; type: cell-based, mouse; details: for MTT assay (% sample vs control), Mean: concomitant TN 1 μg/mL, 24 h, C1 = 0.11 mM acamprosate calcium + 4 μM ribavirin, single drugs 0.11 mM acamprosate calcium, 4 μM ribavirin, 10 μM PRE084; for Corrected Response (Response less control 62.956%) / Response (% neuronal cell survival after ER stress): tunicamycin, MTT
Description: For the in vitro studies, we assessed cell survival of the NSC-34 motoneuron-like cells with a conventional MTT-based assay. NSC-34 is a hybrid cell line produced by fusion of neuroblastoma with mouse motoneuron-enriched primary spinal cord cells, which express properties characteristic of MNs, including the generation of action potentials, the presence of specific neurofilaments and acetylcholine signaling. […] Tunicamycin is a power that was dissolved in DMSO to 10 mg/ml final concentration and then diluted in Dulbeco's modified eagle medium (DMEM) medium at the final working solution indicated in figure legends. The rest of drugs, C1, Acamprosate calcium and Ribavirin were dissolved in water and then in DMEM medium at the final working solutions: 0.11 mM Acamprosate calcium (ACA), 4 μM Ribavirin (RIB) alone or in C1, at a final volume of 100 μI for MTT assays.
We assessed the neuroprotective effect of C1 (acamprosate calcium 0.11 mM+ribavirin 4 μM in 100 μl final volume) when added simultaneous to tunicamycin (TN) in the culture medium. We evaluated cell survival 24 h after the addition of toxin and therapeutic drugs performing an MTT conventional test.
In order to analyze the existence of possible additive neuroprotective effect between drugs, we determined the dose-effect relations of each individual drug (Acamprosate calcium 0.11 mM or Ribavirin 4 μM, both in 100 μI final volume) compared to equivalent doses for C1 (acamprosate calcium 0.11 mM+ribavirin 4 μM in 100 μI final volume).

motoneurons (MNs) [3] = details: cited from earlier work
[4] = acamprosate calcium alone, Dose DA 0.1X (1X = 0.11 mM)
[5] = acamprosate calcium alone, Dose DA 0.2X (1X = 0.11 mM)
[6] = acamprosate calcium alone, Dose DA 0.5X (1X = 0.11 mM)
[7] = acamprosate calcium alone, Dose DA 1X (0.11 mM)
[8] = ribavirin alone, Dose DB 0.1X (1X = 4 μM)
[9] = ribavirin alone, Dose DB 0.2X (1X = 4 μM)
[10] = ribavirin alone, Dose DB 0.5X (1X = 4 μM)
[11] = ribavirin alone, Dose DB 1X (4 μM)

NC(=O)C1CCCc2c1[nH]c1ccc(Cl)cc21 (centres unmarked) [EX-527, 6-chloro-2,3,4,9-tetrahydro-1H-carbazole-1-carboxamide]
effect on the neuroprotective effect (MN survival) exerted by C1 (motoneurons (MNs) [1]): abolished the neuroprotective effect

O=C(OCCN1CCOCC1)C1(c2ccccc2)CCCCC1 [PRE084, 2-(4-Morpholinethyl)1 Phenylcyclohexanecarboxylate]
MN survival compared to the vehicle group (motoneurons (MNs) [1]; root avulsed rats, intrathecal infusion 20 days, 21 days post-injury, C1 = 96 μg/Kg/day acamprosate calcium + 0.48 μg/Kg/day ribavirin, PRE084 1.7 μg/kg/day): significantly different to the vehicle group | neuroprotection against TN stress compared with C1 ([2]; NSC-34 cells, TN 1 μg/mL, 10 μM PRE084, MTT): did not neuroprotect the cells as efficiently as C1 | MTT assay (% sample vs control), Mean ([2]; NSC-34 cells): 68.81% | induction of MN survival (motoneurons (MNs) [3]; spinal root avulsion (Penas et al. 2011)): 50-60%

CC(=O)NCCCS(=O)(=O)O [acamprosate calcium, 3-acetamidopropane-1-sulfonic acid]
MTT assay (% sample vs control), Mean ([2]; NSC-34 cells): 65.80% | Corrected Response (Response less control 62.956%) [2, 4]: 3.52% | Response (% neuronal cell survival after ER stress) [2, 4]: 66.475% | Corrected Response (Response less control 62.956%) [2, 5]: 2.96% | Response (% neuronal cell survival after ER stress) [2, 5]: 65.918% | Corrected Response (Response less control 62.956%) [2, 6]: 3.89% | Response (% neuronal cell survival after ER stress) [2, 6]: 66.849% | Corrected Response (Response less control 62.956%) [2, 7]: 2.46% | Response (% neuronal cell survival after ER stress) [2, 7]: 65.417%

NC(=O)c1ncn([C@@H]2O[C@H](CO)[C@@H](O)[C@H]2O)n1 [ribavirin, 1-[(2R,3R,4S,5R)-3,4-dihydroxy-5-(hydroxymethyl)oxolan-2-yl]-1H-1,2,4-triazole-3-carboxamide]
MTT assay (% sample vs control), Mean ([2]; NSC-34 cells): 68.07% | Corrected Response (Response less control 62.956%) [2, 8]: 5.71% | Response (% neuronal cell survival after ER stress) [2, 8]: 68.662% | Corrected Response (Response less control 62.956%) [2, 9]: 7.93% | Response (% neuronal cell survival after ER stress) [2, 9]: 70.886% | Corrected Response (Response less control 62.956%) [2, 10]: 2.72% | Response (% neuronal cell survival after ER stress) [2, 10]: 65.676% | Corrected Response (Response less control 62.956%) [2, 11]: 5.69% | Response (% neuronal cell survival after ER stress) [2, 11]: 68.647%

Nc1nc2ccc(OC(F)(F)F)cc2s1 [riluzole]
neuroprotective effect (motoneurons (MNs) [3]; model of spinal root avulsion with reimplantation): maximum observed effect of neuroprotection | neuroprotective effect (motoneurons (MNs) [3]; models of root avulsion without reimplantation (Chew 2014)): no neuroprotective effect

NCCCCNCCCN [spermidine]
effect on the neuroprotective effect (MN survival) exerted by C1 (motoneurons (MNs) [1]): did maintain it
